Test results: PubChem BioAssay (NCI)
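The compound was tested at five concentrations on cells cultured in 96-well plates, with a 48-hour exposure period. GI50 marks 50% less growth. TGI is the concentration that stops growth completely.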

Key:
Assay in all cases: NCI-60 cell line screen, 48 h
LOX IMVI melanoma = system: LOX IMVI melanoma
NCI-H522 lung = system: NCI-H522 lung
NCI-H226 lung = system: NCI-H226 lung
HT29 colon = system: HT29 colon
786-0 renal = system: 786-0 renal
OVCAR-5 ovarian = system: OVCAR-5 ovarian
SK-MEL-28 melanoma = system: SK-MEL-28 melanoma
HOP-92 NSCLC = system: HOP-92 NSCLC
SN12C renal = system: SN12C renal
OVCAR-8 ovarian = system: OVCAR-8 ovarian
HCC-2998 colon = system: HCC-2998 colon
OVCAR-3 ovarian = system: OVCAR-3 ovarian
SK-MEL-5 melanoma = system: SK-MEL-5 melanoma
RPMI-8226 leukemia = system: RPMI-8226 leukemia
SF-268 CNS = system: SF-268 CNS
IGROV1 ovarian = system: IGROV1 ovarian
UACC-257 melanoma = system: UACC-257 melanoma
MALME-3M melanoma = system: MALME-3M melanoma
HL-60(TB) leukemia = system: HL-60(TB) leukemia
ACHN renal = system: ACHN renal
KM12 colon = system: KM12 colon
EKVX NSCLC = system: EKVX NSCLC
PC-3 prostate = system: PC-3 prostate
NCI/ADR-RES ovarian = system: NCI/ADR-RES ovarian
BT-549 breast = system: BT-549 breast
HCT-116 colon = system: HCT-116 colon
A549 NSCLC = system: A549 NSCLC
SNB-19 CNS = system: SNB-19 CNS
SK-MEL-2 melanoma = system: SK-MEL-2 melanoma
SF-539 CNS = system: SF-539 CNS
T-47D breast = system: T-47D breast
M14 melanoma = system: M14 melanoma
SF-295 CNS = system: SF-295 CNS
CCRF-CEM leukemia = system: CCRF-CEM leukemia
UO-31 renal = system: UO-31 renal
DU-145 prostate = system: DU-145 prostate
NCI-H460 lung = system: NCI-H460 lung
MDA-MB-231 breast = system: MDA-MB-231 breast
UACC-62 melanoma = system: UACC-62 melanoma
MDA-MB-435 = system: MDA-MB-435
U251 CNS = system: U251 CNS
NCI-H23 lung = system: NCI-H23 lung
MCF7 breast = system: MCF7 breast
RXF 393 renal = system: RXF 393 renal
SK-OV-3 ovarian = system: SK-OV-3 ovarian
MOLT-4 leukemia = system: MOLT-4 leukemia
K-562 leukemia = system: K-562 leukemia
SW-620 colon = system: SW-620 colon
COLO 205 colon = system: COLO 205 colon
HOP-62 NSCLC = system: HOP-62 NSCLC
HCT-15 colon = system: HCT-15 colon
SNB-75 CNS = system: SNB-75 CNS
TK-10 renal = system: TK-10 renal
OVCAR-4 ovarian = system: OVCAR-4 ovarian
HS 578T breast = system: HS 578T breast
A498 renal = system: A498 renal
CAKI-1 renal = system: CAKI-1 renal
SR leukemia = system: SR leukemia

## C(=N\NC1=NCCCCN1)/c1ccc2ccccc2c1
LOX IMVI melanoma
  TGI: 29.8 µM
NCI-H522 lung
  TGI: 87.1 µM
NCI-H226 lung
  TGI: 66.1 µM
HT29 colon
  TGI: 71.9 µM
786-0 renal
  TGI: 67.9 µM
OVCAR-5 ovarian
  TGI: 76.7 µM
SK-MEL-28 melanoma
  TGI: 40.4 µM
HOP-92 NSCLC
  TGI: 62.7 µM
SN12C renal
  TGI: > 100 µM
OVCAR-8 ovarian
  TGI: > 100 µM
HCC-2998 colon
  TGI: 30.3 µM
OVCAR-3 ovarian
  TGI: > 100 µM
SK-MEL-5 melanoma
  TGI: 31.3 µM
RPMI-8226 leukemia
  TGI: 76.1 µM
SF-268 CNS
  TGI: > 100 µM
IGROV1 ovarian
  TGI: > 100 µM
UACC-257 melanoma
  TGI: 46.6 µM
MALME-3M melanoma
  TGI: 30.4 µM
HL-60(TB) leukemia
  TGI: 62.8 µM
ACHN renal
  TGI: > 100 µM
KM12 colon
  TGI: > 100 µM
EKVX NSCLC
  TGI: > 100 µM
PC-3 prostate
  TGI: > 100 µM
NCI/ADR-RES ovarian
  TGI: > 100 µM
BT-549 breast
  TGI: > 100 µM
HCT-116 colon
  TGI: > 100 µM
A549 NSCLC
  TGI: > 100 µM
SNB-19 CNS
  TGI: > 100 µM
SK-MEL-2 melanoma
  TGI: 46.7 µM
SF-539 CNS
  TGI: 51.3 µM
T-47D breast
  TGI: 62 µM
M14 melanoma
  TGI: 28 µM
SF-295 CNS
  TGI: 46.3 µM
CCRF-CEM leukemia
  TGI: > 100 µM
UO-31 renal
  TGI: > 100 µM
DU-145 prostate
  TGI: > 100 µM
NCI-H460 lung
  TGI: 62.9 µM
MDA-MB-231 breast
  TGI: 65.9 µM
UACC-62 melanoma
  TGI: 79.8 µM
MDA-MB-435
  TGI: 34.7 µM
U251 CNS
  TGI: 58.6 µM
NCI-H23 lung
  TGI: > 100 µM
MCF7 breast
  TGI: 70.4 µM
RXF 393 renal
  TGI: 60.8 µM
SK-OV-3 ovarian
  TGI: > 100 µM
MOLT-4 leukemia
  TGI: 53.2 µM
K-562 leukemia
  TGI: 40.2 µM
SW-620 colon
  TGI: 52.4 µM
COLO 205 colon
  TGI: 31.5 µM
HOP-62 NSCLC
  TGI: > 100 µM
HCT-15 colon
  TGI: 87.5 µM
SNB-75 CNS
  TGI: > 100 µM
TK-10 renal
  TGI: > 100 µM
OVCAR-4 ovarian
  TGI: > 100 µM
HS 578T breast
  TGI: > 100 µM

## CCc1cn2c(/C=N/N=C(N)N)c(-c3cc(C)c(Cl)cc3Cl)nc2s1
HT29 colon
  TGI: 2.45 µM
OVCAR-5 ovarian
  TGI: 2.96 µM
SK-MEL-28 melanoma
  TGI: 2.82 µM
SK-MEL-5 melanoma
  TGI: 2.99 µM
ACHN renal
  TGI: 3.04 µM
NCI/ADR-RES ovarian
  TGI: 24.8 µM
BT-549 breast
  TGI: 3.2 µM
SF-539 CNS
  TGI: 3.11 µM
DU-145 prostate
  TGI: 3 µM
A498 renal
  TGI: 3.75 µM
MDA-MB-231 breast
  TGI: 2.12 µM
UACC-62 melanoma
  TGI: 2.72 µM
MDA-MB-435
  TGI: 2.76 µM
NCI-H23 lung
  TGI: 3.16 µM
SK-OV-3 ovarian
  TGI: 3.56 µM
COLO 205 colon
  TGI: 3.61 µM
HCT-15 colon
  TGI: 2.97 µM
SNB-75 CNS
  TGI: 2.88 µM
TK-10 renal
  TGI: 3.46 µM
OVCAR-4 ovarian
  TGI: 2.78 µM

## COc1ccc(CCN2CCCn3c2nc2ccccc2c3=O)cc1
LOX IMVI melanoma
  GI50: 0.0762 µM
  TGI: > 100 µM
NCI-H522 lung
  GI50: 0.035 µM
  TGI: 1.14 µM
NCI-H226 lung
  GI50: 6.43 µM
  TGI: > 100 µM
HT29 colon
  GI50: 0.0365 µM
  TGI: > 28.4 µM
786-0 renal
  GI50: 0.299 µM
  TGI: > 100 µM
OVCAR-5 ovarian
  GI50: 0.95 µM
  TGI: > 100 µM
SK-MEL-28 melanoma
  GI50: 2.42 µM
  TGI: > 100 µM
HOP-92 NSCLC
  GI50: 3.33 µM
  TGI: > 95.6 µM
SN12C renal
  GI50: 1.1 µM
  TGI: > 100 µM
OVCAR-8 ovarian
  GI50: 0.423 µM
  TGI: > 100 µM
HCC-2998 colon
  GI50: 0.362 µM
  TGI: > 100 µM
OVCAR-3 ovarian
  GI50: 0.0328 µM
  TGI: 0.136 µM
SK-MEL-5 melanoma
  GI50: 0.0433 µM
  TGI: 4.44 µM
RPMI-8226 leukemia
  GI50: 0.353 µM
  TGI: > 100 µM
SF-268 CNS
  GI50: 1.16 µM
  TGI: > 100 µM
IGROV1 ovarian
  GI50: 0.109 µM
  TGI: > 100 µM
CAKI-1 renal
  GI50: 0.252 µM
  TGI: > 100 µM
UACC-257 melanoma
  GI50: > 100 µM
  TGI: > 100 µM
MALME-3M melanoma
  GI50: 0.0538 µM
  TGI: > 100 µM
HL-60(TB) leukemia
  GI50: 0.038 µM
  TGI: 0.982 µM
ACHN renal
  GI50: 0.978 µM
  TGI: > 100 µM
KM12 colon
  GI50: 0.0445 µM
  TGI: > 20.5 µM
EKVX NSCLC
  GI50: 0.97 µM
  TGI: > 100 µM
PC-3 prostate
  GI50: 0.127 µM
  TGI: > 100 µM
NCI/ADR-RES ovarian
  GI50: 0.0432 µM
BT-549 breast
  GI50: 0.717 µM
  TGI: > 100 µM
HCT-116 colon
  GI50: 0.0493 µM
  TGI: > 100 µM
A549 NSCLC
  GI50: 0.087 µM
  TGI: > 100 µM
SNB-19 CNS
  GI50: 0.629 µM
  TGI: > 100 µM
SF-539 CNS
  GI50: 0.0876 µM
  TGI: 0.432 µM
M14 melanoma
  GI50: 0.0463 µM
  TGI: > 100 µM
SF-295 CNS
  GI50: 0.0597 µM
  TGI: > 54.2 µM
CCRF-CEM leukemia
  GI50: 0.162 µM
  TGI: > 100 µM
UO-31 renal
  GI50: 0.876 µM
  TGI: > 100 µM
DU-145 prostate
  GI50: 0.211 µM
  TGI: > 64.8 µM
A498 renal
  GI50: 0.0296 µM
  TGI: 0.814 µM
NCI-H460 lung
  GI50: 0.0512 µM
  TGI: > 100 µM
MDA-MB-231 breast
  GI50: 0.408 µM
  TGI: > 100 µM
UACC-62 melanoma
  GI50: 0.185 µM
  TGI: > 100 µM
MDA-MB-435
  GI50: 0.022 µM
  TGI: 0.061 µM
U251 CNS
  GI50: 0.0552 µM
NCI-H23 lung
  GI50: 0.232 µM
  TGI: > 83.9 µM
MCF7 breast
  GI50: 0.0295 µM
  TGI: > 100 µM
RXF 393 renal
  GI50: 0.2 µM
  TGI: 35.8 µM
SK-OV-3 ovarian
  GI50: 0.396 µM
  TGI: > 100 µM
MOLT-4 leukemia
  GI50: 0.0779 µM
  TGI: > 100 µM
K-562 leukemia
  GI50: < 0.0205 µM
  TGI: > 100 µM
SW-620 colon
  GI50: 0.0508 µM
  TGI: > 100 µM
COLO 205 colon
  GI50: 0.0555 µM
  TGI: 1.13 µM
HOP-62 NSCLC
  GI50: 0.084 µM
  TGI: > 61.8 µM
HCT-15 colon
  GI50: 0.0444 µM
  TGI: > 100 µM
SR leukemia
  GI50: 0.0448 µM
  TGI: > 100 µM
TK-10 renal
  TGI: > 100 µM
OVCAR-4 ovarian
  GI50: 0.353 µM
  TGI: > 100 µM
HS 578T breast
  GI50: 0.356 µM
  TGI: > 100 µM
